# Data published in patent US20260242391A1 (priority 2023, published 2026).
# Assays:
# [1] = in vitro; conditions: human
# [2] = system: HL-60; experiment: HL-60 differentiation potency; type: cell-based; conditions: Homo sapiens
IC50 [1] [µM],EC50 [2] [µM],Structure (SMILES)
4.88,2.32,"COc1cc(CN[C@@H]2O[C@@H]3O[C@@]4(C)CC[C@H]5[C@H](C)CC[C@@H]([C@H]2C)[C@@]35OO4)ccn1 [Compound 50, (3R,5aS,6R,8aS, 9R,10R,12R, 12aR)-N-((2-methoxypyridin-4-yl)methyl)-3,6,9-trimethyldeca-hydro-12H-3,12-epoxy[1,2] dioxepino[4,3-i] isochromen-10-amine]"
> 20,2.41,"Cc1cc(CO[C@@H]2O[C@@H]3O[C@@]4(C)CC[C@H]5[C@H](C)CC[C@@H]([C@H]2C)[C@@]35OO4)ccc1C(=O)O [Compound 51, 2-methyl-4-((((3R,5aS,6R,8aS, 9R,10R,12R, 12aR)-3,6,9-trimethyldeca-hydro-12H-3,12-epoxy[1,2]dioxepino[4,3-i]isochromen-10-yl)oxy)methyl) benzoic acid]"
3.55,2.45,"C[C@H]1[C@H](NC2CS(=O)(=O)C2)O[C@@H]2O[C@@]3(C)CC[C@H]4[C@H](C)CC[C@@H]1[C@@]24OO3 [Compound 52, 3-(((3R,5aS,6R,8aS, 9R,10R,12R, 12aR)-3,6,9-trimethyldeca-hydro-12H-3,12-epoxy[1,2]dioxepino[4,3-i]isochromen-10-yl)amino) thietane 1,1-dioxide]"
> 20,2.73,"C[C@H]1[C@H](OCCS(C)(=O)=O)O[C@@H]2O[C@@]3(C)CC[C@H]4[C@H](C)CC[C@@H]1[C@@]24OO3 [Compound 53, (3R,5aS,6R,8aS, 9R,10R,12R, 12aR)-3,6,9-trimethyl-10-(2-(methylsulfonyl)ethoxy)deca-hydro-12H-3,12-epoxy[1,2] dioxepino[4,3-i] isochromene]"
> 20,2.82,"COc1cc(CO[C@@H]2O[C@@H]3O[C@@]4(C)CC[C@H]5[C@H](C)CC[C@@H]([C@H]2C)[C@@]35OO4)ccc1C(=O)O [Compound 54, 2-methoxy-4-((((3R,5aS,6R,8aS, 9R,10R,12R, 12aR)-3,6,9-trimethyldeca-hydro-12H-3,12-epoxy[1,2]dioxepino[4,3-i]isochromen-10-yl)oxy)methyl) benzoic acid]"
> 20,7.4,"C[C@H]1[C@@H](OCC23CC(C(=O)O)(C2)C3)O[C@@H]2O[C@@]3(C)CC[C@H]4[C@H](C)CC[C@@H]1[C@@]24OO3 [Compound 55, 3-((((3R,5aS,6R,8aS, 9R,10S,12R, 12aR)-3,6,9-trimethyldeca-hydro-12H-3,12-epoxy[1,2]dioxepino[4,3-i]isochromen-10-yl)oxy)methyl) bicyclo[1.1.1] pentane-1-carboxylic acid]"
11,8.19,"C[C@H]1[C@@H](Nc2cccc(F)c2)O[C@@H]2O[C@@]3(C)CC[C@H]4[C@H](C)CC[C@@H]1[C@@]24OO3 [Compound 56, (3R,5aS,6R,8aS, 9R,10S,12R, 12aR)-N-(3-fluorophenyl)-3,6,9-trimethyldeca-hydro-12H-3,12-epoxy[1,2] dioxepino[4,3-i] isochromen-10-amine]"
9.89,8.49,"C[C@H]1[C@H](N[C@@H](C)c2ccc(S(C)(=O)=O)cc2)O[C@@H]2O[C@@]3(C)CC[C@H]4[C@H](C)CC[C@@H]1[C@@]24OO3 [Compound 57, (3R,5aS,6R,8aS, 9R,10R,12R, 12aR)-3,6,9-trimethyl-N-((S)-1-(4-(methyl-sulfonyl)phenyl)ethyl)decahydro-12H-3,12-epoxy[1,2] dioxepino[4,3-i] isochromen-10-amine]"
8.34,9.12,"C[C@H]1[C@H](NCc2ccc(S(C)(=O)=O)cc2)O[C@@H]2O[C@@]3(C)CC[C@H]4[C@H](C)CC[C@@H]1[C@@]24OO3 [Compound 58, (3R,5aS,6R,8aS, 9R,10R,12R, 12aR)-3,6,9-trimethyl-N-(4-(methylsulfonyl)benzyl) decahydro-12H-3,12-epoxy[1,2] dioxepino[4,3-i] isochromen-10-amine]"
11,9.63,"C[C@H]1[C@H](NCCS(=O)(=O)N(C)C)O[C@@H]2O[C@@]3(C)CC[C@H]4[C@H](C)CC[C@@H]1[C@@]24OO3 [Compound 59, N,N-dimethyl-2-(((3R,5aS,6R, 8aS,9R,10R,12R, 12aR)-3,6,9-trimethyldeca-hydro-12H-3,12-epoxy[1,2]dioxepino[4,3-i]isochromen-10-yl)amino) ethane-1-sulfonamide]"
11.8,11.2,"C[C@H]1[C@H](N2CCC(C(=O)NC3COC3)CC2)O[C@@H]2O[C@@]3(C)CC[C@H]4[C@H](C)CC[C@@H]1[C@@]24OO3 [Compound 60, N-(oxetan-3-yl)-1-((3R,5aS, 6R,8aS,9R,10R, 12R,12aR)-3,6,9-trimethyldeca-hydro-12H-3,12-epoxy[1,2]dioxepino[4,3-i]isochromen-10-yl)piperidine-4-carboxamide]"
> 20,13.4,"C[C@H]1[C@H](OCc2ccc(C(=O)O)o2)O[C@@H]2O[C@@]3(C)CC[C@H]4[C@H](C)CC[C@@H]1[C@@]24OO3 [Compound 61, 5-((((3R,5aS,6R, 8aS,9R,10R,12R, 12aR)-3,6,9-trimethyldeca-hydro-12H-3,12-epoxy[1,2]dioxepino[4,3-i]isochromen-10-yl)oxy)methyl) furan-2-carboxylic acid]"
> 20,16.4,"C[C@H]1[C@H](CCNS(C)(=O)=O)O[C@@H]2O[C@@]3(C)CC[C@H]4[C@H](C)CC[C@@H]1[C@@]24OO3 [Compound 62, N-(2-((3R,5aS,6R,8aS, 9R,10S,12R, 12aR)-3,6,9-trimethyldeca-hydro-12H-3,12-epoxy[1,2]dioxepino[4,3-i]isochromen-10-yl)ethyl) methane-sulfonamide]"
> 20,> 20,"C[C@H]1[C@H](N2CCCCC2)O[C@@H]2O[C@@]3(C)CC[C@H]4[C@H](C)CC[C@@H]1[C@@]24OO3 [Compound 63, 1-((3R,5aS,6R,8aS, 9R,10R,12R, 12aR)-3,6,9-trimethyldeca-hydro-12H-3,12-epoxy[1,2]dioxepino[4,3-i]isochromen-10-yl)piperidine]"
> 20,> 20,"C[C@H]1[C@H](N2CCC(C(=O)O)CC2)O[C@@H]2O[C@@]3(C)CC[C@H]4[C@H](C)CC[C@@H]1[C@@]24OO3 [Compound 64, 1-((3R,5aS,6R,8aS, 9R,10R,12R, 12aR)-3,6,9-trimethyldeca-hydro-12H-3,12-epoxy[1,2]dioxepino[4,3-i]isochromen-10-yl)piperidine-4-carboxylic acid]"
> 20,> 20,"C[C@H]1[C@H](N2CCC(C(=O)NC3CS(=O)(=O)C3)CC2)O[C@@H]2O[C@@]3(C)CC[C@H]4[C@H](C)CC[C@@H]1[C@@]24OO3 [Compound 65, N-(1,1-dioxidothietan-3-yl)-1-((3R,5aS,6R,8aS, 9R,10R,12R, 12aR)-3,6,9-trimethyldeca-hydro-12H-3,12-epoxy[1,2]dioxepino[4,3-i]isochromen-10-yl)piperidine-4-carboxamide]"
> 20,> 20,"C[C@H]1[C@@H](CCN2CCC(C(=O)O)CC2)O[C@@H]2O[C@@]3(C)CC[C@H]4[C@H](C)CC[C@@H]1[C@@]24OO3 [Compound 66, 1-(2-((3R,5aS,6R, 8aS,9R,10R,12R, 12aR)-3,6,9-trimethyldeca-hydro-12H-3,12-epoxy[1,2]dioxepino[4,3-i]isochromen-10-yl)ethyl) piperidine-4-carboxylic acid]"
